We go through 12 compounds from patent publication US11434226B2, “Salt and polymorph of benzopyrimidinone compound and pharmaceutical composition and use thereof” (SHANGHAI INSTITUTE OF MATERIA MEDICA, CHINESE ACADEMY OF …, priority 2017, dated 2022).

A short description of series [1]: Comparison of solubility of compound Z and its salts. It counts as physicochemical. An excerpt: An appropriate amount of the sample was weighed in a glass test tube and a selected solvent was gradually added therein to observe the clarification.
A short description of series [2]: Comparison of compound appearance and characters (odor). It counts as physicochemical. The text has this:
The appearance and characters of the basic compound Z prepared in Example 16 and different salts of compound Z prepared in Examples 1-2, 5-6, 9 were observed, the results are shown in the table below: […]

Series [3] is described as follows: Chemical stability by stress testing (high temperature, high humidity, illumination). It counts as physicochemical. To be noted: for stability, in words: high temperature, light and high humidity conditions. The text has this: The chemical stability of the basic compound Z prepared in Example 16 and the salts of compound Z prepared in Examples 5, 9 and 10 was compared through a stress testing, the results were shown in the table below: […]

A short description of series [4]: In vivo pharmacokinetic experiment in rats. The following applies: by gavage. As for the experimental part:
The in vivo pharmacokinetic experiment in rats were carried out for the basic compound Z prepared in Example 16, the hydrochlorate of compound Z prepared in Example 9, the succinate of compound Z prepared in Example 2, the fumarate of compound Z prepared in Example 3 (administered by gavage, dose 3 mg/kg), the results were shown in FIG. 8 of the specification.

Series [5] in a line: Hygroscopicity of solid forms of hydrochlorate of compound Z. The series is classed as physicochemical. The text has this: The properties of crystalline form A prepared in Examples 11 or 12, crystalline form B prepared in Example 14 and amorphous substance prepared in Example 15 were compared, the results were shown in the following table 6.
[6] abbreviates: selected solvent of pH 2 (composition not named), simulated gastric fluid, thermodynamic from solid, pH = 2, read-out: Solubility.
[7] abbreviates: selected solvent of pH 4.5 (composition not named), aqueous buffer, thermodynamic from solid, pH = 4.5, read-out: Solubility.
The mark [8] stands for this setting: selected solvent of pH 6.8 (composition not named), aqueous buffer, thermodynamic from solid, pH = 6.8, read-out: Solubility.
The mark [9] stands for this setting: thermodynamic from solid, water (deionized), read-out: Solubility.
Setting [10] is: High humidity (25° C., 92.5% RH), 5 days.
Where [11] appears, read: High humidity (25° C., 92.5% RH), 10 days.
Setting [12] is: high temperature (60° C.), 5 days.
[13] abbreviates: high temperature (60° C.), 10 days.
The mark [14] stands for this setting: illumination (4500 lx ± 500 lx), 5 days.
The mark [15] stands for this setting: illumination (4500 lx ± 500 lx), 10 days.

Entries after “also recorded” stand apart in the source; their conditions may differ. Like-named read-outs stand apart in the source and are kept apart here.

For `CCCOc1ccc(NC(=O)CN2CCN(C)CC2)cc1-c1nc(CC)c(CC)c(=O)[nH]1.O=C(O)/C=C\C(=O)O` [maleate of compound Z, 5,6-diethyl-2-[2-n-propoxy-5-(2-(4-methylpiperazin-1-yl)acetamido)phenyl]pyrimidine-4(3H)-one Maleate], the solubility in series [1] (setting [6]) is 6.1 mg/mL; in series [1] (setting [7]), 21.4 mg/mL; in series [1] (setting [8]), 46.4 mg/mL; in series [1] (setting [9]) it was 5.8 mg/mL. In series [2], the odor result was “No bad smell”.
The like results for `CCCOc1ccc(NC(=O)CN2CCN(C)CC2)cc1-c1nc(CC)c(CC)c(=O)[nH]1.O=C(O)C(O)C(O)C(=O)O` [tartrate of compound Z, 5,6-diethyl-2-[2-n-propoxy-5-(2-(4-methylpiperazin-1-yl)acetamido)phenyl]pyrimidin-4(3H)-one Tartrate] were, in that order, greater than 219 mg/mL, greater than 155 mg/mL, greater than 130 mg/mL, greater than 153 mg/mL and “No bad smell”.
On to `CCCOc1ccc(NC(=O)CN2CCN(C)CC2)cc1-c1nc(CC)c(CC)c(=O)[nH]1.Cl` [hydrochlorate of compound Z, 5,6-diethyl-2-[2-n-propoxy-5-(2-(4-methylpiperazin-1-yl)acetamido)phenyl]pyrimidine-4(3H)-one Hydrochlorate], for which the “solubility, in words” value in series [1] is recorded as “good solubility”. In addition, the solubility in series [1] (setting [6]) is greater than 22.8 mg/mL; in series [1] (setting [7]), greater than 23.6 mg/mL; in series [1] (setting [8]), greater than 26.6 mg/mL; in series [1] (setting [9]), greater than 25 mg/mL. Moreover, the odor result in series [2] was “No bad smell”. In addition, the characters entry in series [3] (0 days), in series [3] (setting [10]), in series [3] (setting [11]), in series [3] (setting [12]), in series [3] (setting [13]) and in series [3] (setting [14]) was “White” throughout. Further, the characters entry in series [3] (setting [15]) is on record as “White”. For the same compound, the purity in series [3] (0 days) worked out at 99.77%; in series [3] (setting [10]), 99.73%; in series [3] (setting [11]) it was 99.77%; in series [3] (setting [12]) it was 99.65%; in series [3] (setting [13]), 99.71%; in series [3] (setting [14]), 99.79%. Besides, in series [3] (setting [15]), the purity is listed as 99.72%. In addition, the “stability, in words” value in series [3] was “high stability”; in series [3] (listed as hydrochlorate) it was “stable”. Also, the “oral bioavailability, in words” value in series [4] (3 mg/kg) is listed as “high oral bioavailability”. For the same compound, the “in vivo pharmacokinetic properties (plasma concentration-time curve, FIG. 8), in words” value in series [4] (dose 3 mg/kg, compared with compound Z) is “significantly better”.
Consider `CCCOc1ccc(NC(=O)CN2CCN(C)CC2)cc1-c1nc(CC)c(CC)c(=O)[nH]1.CS(=O)(=O)O` [methanesulfonate of compound Z, 5,6-diethyl-2-[2-n-propoxy-5-(2-(4-methylpiperazin-1-yl)acetamido)phenyl]pyrimidin-4(3H)-one Methanesulfonate], for which the solubility was greater than 22.4 mg/mL in series [1] (setting [6]), greater than 25.4 mg/mL in series [1] (setting [7]), greater than 23.2 mg/mL in series [1] (setting [8]) and greater than 23.8 mg/mL in series [1] (setting [9]). Besides, in series [2], the odor entry is reported as “No bad smell”. In addition, the characters entry in series [3] (0 days) was “White”; in series [3] (setting [10]), “Yellow”; in series [3] (setting [11]), “Yellow”; in series [3] (setting [12]), “White”; in series [3] (setting [13]), “White”; in series [3] (setting [14]), “White”. For the same compound, the characters result in series [3] (setting [15]) was “White”. Moreover, the purity in series [3] (0 days) is on record as 99.66%; in series [3] (setting [10]) it was 99.54%; in series [3] (setting [11]) it was 99.55%; in series [3] (setting [12]) it was 99.54%; in series [3] (setting [13]), 99.49%; in series [3] (setting [14]), 99.72%. This compound also registered a purity in series [3] (setting [15]) of 99.46%.
For the compound `CCCOc1ccc(NC(=O)CN2CCN(C)CC2)cc1-c1nc(CC)c(CC)c(=O)[nH]1.O=C(O)CCC(=O)O` [succinate of compound Z, 5,6-diethyl-2-[2-n-propoxy-5-(2-(4-methylpiperazin-1-yl)acetamido)phenyl]pyrimidin-4(3H)-one Succinate], the solubility was greater than 20.8 mg/mL in series [1] (setting [6]), greater than 22 mg/mL in series [1] (setting [7]), greater than 20.8 mg/mL in series [1] (setting [8]) and greater than 24.8 mg/mL in series [1] (setting [9]). Also, in series [2], the odor entry is recorded as “No bad smell”.
In the case of `CCCOc1ccc(NC(=O)CN2CCN(C)CC2)cc1-c1nc(CC)c(CC)c(=O)[nH]1` [compound Z, 5,6-diethyl-2-[2-n-propoxy-5-(2-(4-methylpiperazin-1-yl)acetamido)phenyl]pyrimidin-4(3H)-one], the “solubility, in words” value in series [1] is listed as “poor solubility in water; also recorded: significantly lower”. In addition, the solubility in series [1] (setting [6]) was 5.3 mg/mL; in series [1] (setting [7]), 38.1 mg/mL; in series [1] (setting [8]) it was 1.7 mg/mL; in series [1] (setting [9]) it was 1.5 mg/mL. Further, the odor entry in series [2] is recorded as “Pungent odor”. The characters result in series [3] (0 days) was “White”; in series [3] (setting [10]), “White”; in series [3] (setting [11]), “White”; in series [3] (setting [12]) it was “White”; in series [3] (setting [13]), “White”; in series [3] (setting [14]), “Yellowish”. Further, in series [3] (setting [15]), the characters entry is “Yellowish”. For the same compound, the purity worked out at 99.6% in series [3] (0 days); 99.64% in series [3] (setting [10]); 99.53% in series [3] (setting [11]); 99.69% in series [3] (setting [12]); 99.36% in series [3] (setting [13]); 99.37% in series [3] (setting [14]). Further, the “stability, in words” value in series [3] is “relatively poor”.
Turning to `CCCOc1ccc(NC(=O)CN2CCN(C)CC2)cc1-c1nc(CC)c(CC)c(=O)[nH]1.O=C(O)[C@@H](O)[C@H](O)[C@H](O)[C@@H](O)C(=O)O` [mucate of compound Z, 5,6-diethyl-2-[2-n-propoxy-5-(2-(4-methylpiperazin-1-yl)acetamido)phenyl]pyrimidin-4(3H)-one Mucate], the solubility in series [1] (pH = 2) amounted to 36.3 mg/mL; in series [1] (pH = 4.5), 62.7 mg/mL; in series [1] (pH = 6.8), 39.0 mg/mL; in series [1] (water (deionized)), 10.6 mg/mL.
Take `CCCOc1ccc(NC(=O)CN2CCN(C)CC2)cc1-c1nc(CC)c(CC)c(=O)[nH]1.Cl` [Amorphous, 5,6-diethyl-2-[2-n-propoxy-5-(2-(4-methylpiperazin-1-yl)acetamido)phenyl]pyrimidin-4(3H)-one Hydrochloride (Amorphous)]: the “hygroscopicity, water absorption” value in series [5] (65% RH) is reported as 65% RH, water absorption 16.53%; in series [5] (80% RH) it was 80% RH, water absorption 6.74%.
As to `CC(=O)O.CCCOc1ccc(NC(=O)CN2CCN(C)CC2)cc1-c1nc(CC)c(CC)c(=O)[nH]1` [acetate of compound Z, 5,6-diethyl-2-[2-n-propoxy-5-(2-(4-methylpiperazin-1-yl)acetamido)phenyl]pyrimidin-4(3H)-one Acetate], the solubility is 35.8 mg/mL in series [1] (setting [6]), greater than 102 mg/mL in series [1] (setting [7]), 22.6 mg/mL in series [1] (setting [8]) and 14 mg/mL in series [1] (setting [9]).
On to `CCCOc1ccc(NC(=O)CN2CCN(C)CC2)cc1-c1nc(CC)c(CC)c(=O)[nH]1.O=S(=O)(O)O` [sulfate of compound Z, 5,6-diethyl-2-[2-n-propoxy-5-(2-(4-methylpiperazin-1-yl)acetamido)phenyl]pyrimidin-4(3H)-one Sulfate], for which the solubility is greater than 20.2 mg/mL in series [1] (setting [6]), greater than 25.6 mg/mL in series [1] (setting [7]), greater than 24.4 mg/mL in series [1] (setting [8]) and greater than 20.6 mg/mL in series [1] (setting [9]). Also, the characters entry in series [3] (0 days) is “Yellow”; in series [3] (setting [10]) it was “Yellow powder”; in series [3] (setting [11]) it was “Yellow powder”; in series [3] (setting [12]) it was “Yellow”; in series [3] (setting [13]), “Yellow”; in series [3] (setting [14]), “Yellow”. For the same compound, the characters result in series [3] (setting [15]) is “Gray-yellow”. Moreover, the purity turned out to be 99.63% in series [3] (0 days); 99.64% in series [3] (setting [10]); 99.62% in series [3] (setting [11]); 99.59% in series [3] (setting [12]); 99.64% in series [3] (setting [13]); 97.43% in series [3] (setting [14]). This compound yielded a purity in series [3] (setting [15]) of 96.99%.
With `CCCOc1ccc(NC(=O)CN2CCN(C)CC2)cc1-c1nc(CC)c(CC)c(=O)[nH]1.O=C(O)/C=C/C(=O)O` [fumarate of compound Z, 5,6-diethyl-2-[2-n-propoxy-5-(2-(4-methylpiperazin-1-yl)acetamido)phenyl]pyrimidin-4(3H)-one Fumarate], the solubility in series [1] (setting [6]) is greater than 24.2 mg/mL; in series [1] (setting [7]), greater than 20.2 mg/mL; in series [1] (setting [8]) it was greater than 27 mg/mL; in series [1] (setting [9]), greater than 26.6 mg/mL.
Turning to `CCCOc1ccc(NC(=O)CN2CCN(C)CC2)cc1-c1nc(CC)c(CC)c(=O)[nH]1.Cl` [form B, 5,6-diethyl-2-[2-n-propoxy-5-(2-(4-methylpiperazin-1-yl)acetamido)phenyl]pyrimidin-4(3H)-one Hydrochlorate (Form B)], the “hygroscopicity, water absorption” value in series [5] (65% RH) is reported as 65% RH, water absorption 3.58%; in series [5] (80% RH), 80% RH, water absorption 11.3%.
